What was measured:
[1] = test system: splenic enriched CD4^+ T cells; assay: Cell viability by Fixable Viability Dye eFluor 780, flow cytometry; type: cell-based, murine; conditions: 400 µM, 2 hours
Description: After mechanic disruption of the spleen, erythrocytes are eliminated by hypotonic shock with ammonium chloride potassium (ACK) lysing buffer. Then CD4^+ T cells are isolated from spleen cell suspension by negative selection using a CD4^+ T cell isolation kit (Miltenyi Biotec, Paris, France) followed by auto-MACS (Miltenyi Biotec) magnetic sorting, according to the manufacturer's instructions. Purity of isolated CD4^+ T cells is usually > 95%. Cell suspensions are first incubated with anti-FcγRIII/II (Fc Block, 2.4G2, BD Biosciences, Le Pont de Claix, France) monoclonal antibodies (mAb) for 10 minutes at 4°C and then stained for 30 minutes at 4°C in PBS, 0.1% bovine serum albumin (BSA) with Fc Block present, using saturating amounts of rat anti-mouse CD4-Pacific Blue (RM4-5, BD Biosciences) mAb. Gates for CD4^+ populations are set according to isotype controls. Cell viability is determined by staining with 7-aminoactinomycin D (7-AAD; Sigma-Aldrich, St-Quentin-Fallavier, France) or Fixable Viability Dye eFluor 780 (eBiosciences, Paris, France). When indicated, samples are fixed with 1% paraformaldehyde. Samples are acquired on an LSR II flow cytometer (BD Biosciences) and data were analyzed with DIVA software (BD Biosciences).

[2] = test system: splenic T-lymphocyte subsets; assay: Absolute numbers of splenic T-lymphocyte subsets by flow cytometry; type: in vivo, mice; conditions: 15 days post first injection, after gene transfer, vs PBS
Description: MnTBAP (Calbiochem, San Diego, USA or Enzo Life Sciences, Farmingdale, USA) is dissolved in 75 mM NaOH to constitute a 20 mM stock solution. MnTBAP is dissolved in the complete medium, used for in vitro treatment, containing RPMI-1640 supplemented with 10% heat-inactivated fetal calf serum, 100 U/ml penicillin/streptomycin, 2 mM glutamax and 50 µM β-mercaptoethanol β-ME). Hypertonic medium, used to block clathrin dependent endocytosis, is complete medium supplemented with 0.45 M sucrose. For in vivo treatment, the stock solution is diluted with PBS and administered at 80 mg/kg intraperitoneally daily during five days. Control animals are injected with equivalent volume of PBS.
Intramuscular (IM) injection: Two hours post first intraperitoneal (IP) injection of MnTBAP, mice are anesthetized by IP injection of xylazine (10 mg/kg) and ketamine (100 mg/kg) and 25 µl of a rAAV2/1 CMV SGCA HY viral preparation containing 2.5.10^9 vg is injected in the left tibialis anterior muscle (TA). Controls are injected with PBS. Mice are sacrificed 15 days after vector injection and the injected muscles are harvested to perform histologic analysis. Spleens are harvested to analyze transgene-specific T cell response.
After mechanic disruption of the spleen, erythrocytes are eliminated by hypotonic shock with ammonium chloride potassium (ACK) lysing buffer. […]

[3] = test system: clathrin and CD4; assay: Immunofluorescence confocal microscopy, anti-CD4 and anti-clathrin; type: cell-based; conditions: murine splenic enriched CD4+ T cells, 2 hours, 400 µM, vs non-treated
Description: After culture in complete medium with or without MnTBAP at 400 µM, murine splenic CD4^+ T cells are collected and subjected to immunostaining as previously described (T. M. Neildez-Nguyen et al., Immunology 144, 431. 2015). Briefly, after adhesion on poly-L-lysine-coated slides (Thermo Fisher Scientific), cells are fixed in 4% paraformaldehyde for 5 minutes at 4°C and for 10 minutes at room temperature, and permeabilized with methanol for 6 minutes at -20°C. Cells are stained overnight with rat anti-mouse CD4-APC (BD Biosciences) and rabbit anti-mouse clathrin (Abcam, Paris, France) antibodies, and then with the goat anti-rabbit Alexa Fluor 488 secondary antibody (Invitrogen, Carlsbad, USA) for 30 minutes at room temperature. Negative controls are performed with the corresponding isotype controls of primary antibodies used (BD Biosciences and Abcam). The slides are mounted with Fluoromount/Dapi (SouthernBiotech, Montrouge, France). Images are acquired with confocal-laser-scanning microscope (Leica Microsystems, Nanterre, France).

O=C(O)c1ccc(-c2c3nc(c(-c4ccc(C(=O)O)cc4)c4ccc([n-]4)c(-c4ccc(C(=O)O)cc4)c4nc(c(-c5ccc(C(=O)O)cc5)c5ccc2[n-]5)C=C4)C=C3)cc1.[Mn+3] [MnTBAP, manganese [III] tetrakis (4-benzoic acid) porphyrin]
cell death (eFluor 780+ dead cells) [1]: doesn't result in more eFluor 780+ dead cells | absolute number of splenic CD4^+ T cells [2]: significant decrease in the absolute number | absolute number of splenic CD8^+ T cells [2]: significant decrease in the absolute number | colocalization of clathrin and CD4 [3]: colocalization of clathrin and CD4 is observed

— patent EP3431088A1, “MNTBAP FOR USE IN INDUCING A TRANSIENT IMMUNE TOLERANCE” (priority 2017, dated 2019)
